Laboratory results taken from US6936615B2, “Heteroaryl derivatives and their use as medicaments” (Zentaris GmbH, priority 2000, dated 2005).

Columns and labels:
[1] = tested on: human cervical carcinoma cell lines KB/HeLa (ATCC/CCL17); assay: XTT test for cellular dehydrogenase activity (proliferation test), KB/HeLa; type: cell-based; conditions: values determined from 5 substance concentrations, 45 h incubation + 3 h XTT, read-out: XTT-Assay IC50 KB/HeLa (in-vitro cytotoxicity)
Description: (§1) In a proliferation test, the antiproliferative activity of the substance D-43411 was examined using established tumor cell lines. In the test used, the cellular dehydrogenation activity is determined, which makes it possible to determine the vitality of the cell and, indirectly, the cell count. The cell lines used are the human cervical carcinoma cell lines KB/HeLa (ATCC/CCL17), the murine lymphocyte leukaemia L1210 (ATCC CCL-219), the human breast adenocarcinoma line MCF7/ATCC HTB22) and the ovary adenocarcinoma line SKOV-3 (ATCC HTB77). These are established cell lines which are very well characterized and were obtained from ATCC and cultured.
(§2) The adherently growing tumor cell lines HeLa/KB, SKOV-3 and MCF7 and the L1210 leukaemia line, which grows in suspension, were cultivated under standard conditions in an incubator with gas inlet at 37° C., 5% CO2 and 95% atmospheric humidity. […]
(§3) For the XTT assay, 1 mg/ml of XTT (sodium 3′-[1-(phenylaminocarbonyl)-3,4-tetrazolium]-bis(4-methoxy-6-nitro)benzenesulfonic acid) is dissolved in RPMI-1640 medium without Phenol Red. […] The cell plates are then incubated in the incubator with gas inlet for a further 3 h, and the optical density (OD490nm) is determined in a photometer.
(§4) Using the OD490nm obtained, the inhibition in percent relative to the control is calculated. […]

[2] = tested on: human breast adenocarcinoma line MCF7 (ATCC HTB22); assay: XTT test for cellular dehydrogenase activity (proliferation test), MCF7; type: cell-based; conditions: test period of 48 h
Description: as §1, §2, §3, §4

[3] = tested on: murine lymphocyte leukaemia L1210 (ATCC CCL-219); assay: XTT test for cellular dehydrogenase activity (proliferation test), L1210; type: cell-based; conditions: Mus musculus, values determined from 5 substance concentrations, 45 h incubation + 3 h XTT, read-out: XTT-Assay IC50 L1210 (in-vitro cytotoxicity)
Description: as §1, §2, §3, §4

[4] = tested on: ovary adenocarcinoma line SKOV-3 (ATCC HTB77); assay: XTT test for cellular dehydrogenase activity (proliferation test), SKOV-3; type: cell-based; conditions: Homo sapiens, SK-OV-3, values determined from 5 substance concentrations, 45 h incubation + 3 h XTT, read-out: XTT-Assay IC50 SKOV-3 (in-vitro cytotoxicity)
Description: as §1, §2, §3, §4

**Q.** Which melting point does the source give for `COc1cc(OC)cc(N2CCN(C(=O)c3ccnc4ccccc34)CC2)c1` here?
**A.** The melting point was 146 to 148 °C.

**Q.** Which IC50 [1] does the source give for `COc1cc(OC)cc(N2CCN(C(=O)C3c4ccccc4NC4C=CC=CC43)CC2)c1` [D-43411] here?
**A.** The IC50 was < 0.3 ng/mL.

**Q.** What about the IC50 ([2]; Homo sapiens, values determined from 5 substance concentrations, read-out: XTT-Assay IC50 MCF7 (in-vitro cytotoxicity)) of the same compound?
**A.** Its IC50 is > 3.16 µg/mL.

**Q.** And the “inhibition (antiproliferative effect) in MCF7” value ([2]; at 3.16_g/ml)?
**A.** Its value is 18%.

**Q.** What about the IC50 [3] of the same compound?
**A.** The IC50 was < 0.3 ng/mL.

**Q.** What about the IC50 [4] of the same compound?
**A.** Its IC50 is < 0.3 ng/mL.
